Values joined by “and” are separate entries in the source; they are usually repeats but may differ in a detail not shown here. Equal values may be shown once.
Test system: tumor cells
Assay: Tumor volume in nude mice injected subcutaneously with tumor cells, treated with honokiol diepoxide
Format: in vivo
Settings: 40 mg/kg daily intraperitoneally
Protocol: Nude mice were injected subcutaneously with approximately one million tumor cells. Once tumors became visible, they were treated with 40 mg/kg daily of honokiol diepoxide. The compound was reconstituted in 100 microliters of ethanol and diluted with 900 microliters of 20% Intralipid, and 0.3 ml of this mixture was injected intraperitoneally daily. Tumors were measured with vernier calipers, and tumor volume was calculated using the formula (width^2×length)0.52, where width is the smallest dimension, 2 represents squared, and […].

For `Oc1ccc(-c2cc(CC3CO3)ccc2O)cc1CC1CO1` (stereo not shown) [Honokiol Epoxide, honokiol diepoxide], the “Average (tumor volume)” value (group average, in mm³ (unit assumed)) was 433.3632, the “Tumor Volume” value (individual animal, volume = (width^2 x length) x 0.52, 40 mg/kg, in mm³ (unit assumed)) was 385.2 and 914.8568 and 0 and the “W (tumor width)” value (individual animal, vernier calipers, 40 mg/kg) was 8.59 and 11 and 0. For the same compound, the “L (tumor length)” value (individual animal, vernier calipers, 40 mg/kg, in mm (unit assumed)) was 10.04 and 14.54 and 0.
